# From patent US4352880A (priority 1979, dated 1982)
# Where “and” joins values, the source holds several entries; their conditions need not be identical. Equal entries are not always repeated. Where two headings read alike, the source gives them in different places.
# What was measured:
# [1] = physchem; settings: ta-1538 agar
# [2] = physchem; settings: agar
# [3] = physchem; settings: minimal medium, phosphate buffer, pH 7
# [4] = system: S. typhimurium TA1535
# [5] = system: S. typhimurium TA1535; remark: listed apart in the source
# [6] = system: S. typhimurium TA1535; test: Homogeneous bioassay with microsomal activation, minimum mutagenic concentration; settings: metabolic activation, 90% confidence intervals
# [7] = Diffusion bioassay for mutagenicity with microsomal activation (procarcinogens); settings: agar plates
# [8] = system: S. typhimurium TA1535; test: as above; settings: for Cmut (minimal mutagenic concentration): brackets: one standard deviation; for Cmut threshold value (mean): diffusion method, metabolic activation, brackets: 90% confidence intervals; for Cmut /co /s: from figure
# [9] = system: TA-1538
# [10] = half-lifetime .tau.1/2 from diffusion bioassay
smiles,measurement,setting,value
"CC(=O)Nc1ccc2c(c1)Cc1ccccc1-2 [2-AAF, a-acetyl amino fluorene]",half-life,[1],0.446 h
"CCOS(C)(=O)=O [EMS, ethyl-methane-sulfonate]",half-life,[2]; .tau.1/2 (Table 16),14.5 h
same,half-life,[3],13.8 h
same,Cmut threshold value (mean),[4],"20.3(13.17, 26.97) μg/ml"
same,C mut^hom threshold value,[5],16.85 ± 10.85
"O=NN1CCCC1 [NP, nitrosopyrrolidine]",C mut^hom threshold value,[6],0.58 ± 4.8
same,half-life,[7],5.1 h
same,rmut (radius of mutagenic zone),"[8]; 0.25 μl/disc, R = 4.25 cm, 3 days",1.6 ± 0.18 cm
same,Cmut (minimal mutagenic concentration),"[8]; 0.25 μl, co /s 0.27 mg/ml","0.233(0.143, 0.344) μg/ml"
same,rmut (radius of mutagenic zone),"[8]; 2.5 μl/disc, R = 4.25 cm, 3 days",2.5 ± 0.28 cm
same,Cmut (minimal mutagenic concentration),"[8]; 2.5 μl, co /s 2.71 mg/ml","0.233(0.125, 0.449) μg/ml"
same,rmut (radius of mutagenic zone),"[8]; 10 μl/disc, R = 4.25 cm, 3 days",3.43 ± 0.32 cm and 3.4 ± 0.32 cm
same,Cmut (minimal mutagenic concentration),"[8]; 10 μl, co /s 10.85 mg/ml","0.097(0.048, 0.212) μg/ml"
same,rmut (radius of mutagenic zone),"[8]; 25 μl/disc, R = 4.25 cm, 3 days",3.7 ± 0.31 cm
same,Cmut (minimal mutagenic concentration),"[8]; 25 μl, co /s 27.1 mg/ml","0.108(0.082, 0.25) μg/ml"
same,Cmut threshold value (mean),[8],"0.17(0.10, 0.37) μg/ml"
"O=NN1CCOCC1 [NM, N-nitrosomorpholine]",C mut^hom threshold value,[6],0.7 ± 3.6
same,half-life,[7],6 h
same,rmut (radius of mutagenic zone),"[8]; 0.25 μl/disc, R = 4.25, TA 1535",1.31 ± 0.12 cm and 1.31 ± 0.1 cm
same,rmut /R,"[8]; 0.25 μl, co /s 0.29 mg/ml, R = 4.25 cm",0.3 ± 0.02
same,Cmut (minimal mutagenic concentration),"[8]; 0.25 μl, co /s 0.29 mg/ml","0.64(0.436, 0.785) μg/ml"
same,Cmut /co /s,"[8]; 0.25 μl, co /s 0.29 mg/ml",2.2 × 10^-3
same,rmut (radius of mutagenic zone),"[8]; 2.5 μl/disc, R = 4.25, TA 1535",2.25 ± 0.12 cm
same,rmut /R,"[8]; 2.5 μl, co /s 0.91 mg/ml, R = 4.25 cm",0.52 ± 0.02
same,Cmut (minimal mutagenic concentration),"[8]; 2.5 μl, co /s 0.91 mg/ml","0.699(0.465, 0.902) μg/ml"
same,Cmut /co /s,"[8]; 2.5 μl, co /s 0.91 mg/ml",2.4 × 10^-4
same,rmut (radius of mutagenic zone),"[8]; 25 μl/disc, R = 4.25, TA 1535",3.6 ± 0.12 cm and 3.6 ± 0.3 cm
same,rmut /R,"[8]; 25 μl, co /s 29.1 mg/ml, R = 4.25 cm",0.84 ± 0.07
same,Cmut (minimal mutagenic concentration),"[8]; 25 μl, co /s 29.1 mg/ml","0.276(0.119, 0.505) μg/ml"
same,Cmut /co /s,"[8]; 25 μl, co /s 29.1 mg/ml",9.5 × 10^-6
same,Cmut threshold value (mean),[8],"0.54(0.23, 0.80) μg/ml"
"CN(N=O)C(N)=O [MNU, N-Methyl-N-nitrosourea]",half-life,[2]; [10],0.628 h
same,half-life,[3],0.599 h
same,Cmut threshold value (mean),[4],"0.27(0.13, 0.45) μg/ml"
same,C mut^hom threshold value,[5],0.116 ± 2.52
"CC(=O)OCN(C)N=O [AcDMN, Acetoxydimethylnitrosoamine]",half-life,[2]; .tau.1/2 Parametrically,34.1 h
same,half-life,[2]; [10],19.1 h
same,half-life,[3],30.4 h
same,Cmut threshold value (mean),[4],"1.7(1.07, 3.53) μg/ml"
same,half-lifetime .tau.1/2 from diffusion bioassay,[4]; agar,34.5 h
same,C mut^hom threshold value,[5],1.01 ± 1.48
COc1ccc2nc3cc(Cl)ccc3c(NCCCNCCCl)c2c1 [ICR-191],rmut (radius of mutagenic zone),[9]; Co 10 mg/ml,0.73 cm
same,rmut (radius of mutagenic zone),[9]; Co 100 mg/ml,1.16 cm
same,rmut (radius of mutagenic zone),[9]; Co 1000 mg/ml,1.52 cm
same,half-life,[1],2.09 h
